Experimental data as given in US7173063B1, “Topoisomerase poisons for the treatment of proliferative disorders” (Fred Hutchinson Cancer Research Center, priority 2000, dated 2007).

How the values were obtained:
yeast Topo I = biological target: T1, yeast Topo I (Saccharomyces cerevisiae, UniProt P04786); assay: Toxicity in yeast overexpressing yeast Topo I (yTOP1) or ytop1-vac mutant; type: cell-based; details: GAL promoter, galactose-induced, vs vector
T1 construct: expressed in transfected cells; host or cells: S. cerevisiae BY4705 (S288C background), plasmid pyTOP1 under the GAL promoter, vector pRS416
T1 sequence (P04786 1-769): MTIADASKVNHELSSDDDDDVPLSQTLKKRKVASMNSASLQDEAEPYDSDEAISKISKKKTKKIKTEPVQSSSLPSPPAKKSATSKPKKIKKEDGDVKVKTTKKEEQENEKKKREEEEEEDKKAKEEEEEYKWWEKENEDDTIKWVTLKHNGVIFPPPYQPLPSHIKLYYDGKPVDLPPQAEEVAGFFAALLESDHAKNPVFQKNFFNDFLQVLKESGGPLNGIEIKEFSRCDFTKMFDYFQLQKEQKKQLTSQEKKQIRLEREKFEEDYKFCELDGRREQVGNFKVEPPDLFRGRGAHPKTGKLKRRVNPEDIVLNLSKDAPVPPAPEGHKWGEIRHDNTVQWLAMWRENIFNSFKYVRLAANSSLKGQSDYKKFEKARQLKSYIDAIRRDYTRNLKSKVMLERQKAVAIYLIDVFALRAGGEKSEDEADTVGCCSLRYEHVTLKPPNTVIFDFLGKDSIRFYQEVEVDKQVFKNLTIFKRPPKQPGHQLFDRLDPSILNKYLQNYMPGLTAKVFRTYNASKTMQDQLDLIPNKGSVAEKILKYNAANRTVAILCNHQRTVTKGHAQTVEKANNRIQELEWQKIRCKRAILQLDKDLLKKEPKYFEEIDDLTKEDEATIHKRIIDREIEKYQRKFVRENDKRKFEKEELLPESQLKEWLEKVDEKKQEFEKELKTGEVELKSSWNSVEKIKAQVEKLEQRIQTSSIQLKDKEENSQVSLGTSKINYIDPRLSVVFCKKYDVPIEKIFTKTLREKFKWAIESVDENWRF
Text: The strains are derived from the A364a genetic background, with the exception of BY4705, which is derived from the S288C background. Gene disruptions were generated by PCR fragment directed replacement (Baudin, et al., Nucleic Acids Research 21: 3329–30 (1993), Guldener, et al., Nucleic Acids Research 24: 2519–24 (1996)). Yeast overexpressing topoisomerase II was constructed by a PCR fragment directed promoter replacement of the topoisomerase II promoter with the yeast GPD promoter flanked upstream by the URA3 marker. All strains (except BY4705) bear the pleitropic drug sensitizing mutations erg6, pdr1, and pdr3 (Balzi, et al., Journal of Bioenergetics & Biomembranes 27: 71–6 (1995), Delaveau, et al, Molecular & General Genetics 244: 501–11 (1994), Gaber, et al., Molecular & Cellular Biology 9: 3447–56 (1989), Saunders, et al., Canadian Journal of Genetics & Cytology, 24: 493–503 (1982). Subik, et al, Current Genetics 10: 665–70 (1986)). The haploid yeast strain BY4705 (Brachmann, et al., Yeast 14: 115–32 (1998)) was used in the experiments described in FIG. 5. Plasmids expressing yeast or human topoisomerase I genes under the GAL promoter (Knab, et al., Journal of Biological Chemistry 268: 22322–30 (1993). Knab, et al., Journal of Biological Chemistry 270: 6141–8 (1995)) were transformed into BY4705 using standard procedures.
Yeast toxicity assays were performed essentially as follows: Exponentially growing cultures of the appropriate strains were diluted in synthetic complete media to a concentration of 7.4×10^4 cells/mL, and aliquots (135 μL) were transferred to each well of clear flat-bottomed 96 well plates. Compounds were added in duplicate or triplicate as 15 μL of the appropriate dilution in 5% DMSO. A 15 μL portion of 5% DMSO was added to control wells. […] Cell growth (OD660) in treated wells was plotted as a percentage of the growth in at least four averaged solvent control wells for the same strain. Camptothecin sodium salt (camptothecin Na) was the agent used in all yeast assays as standard.
In this regard, the sensitivity of yeast strains overexpressing either human or yeast topoisomerase I genes (hTOP1 or yTOP1, respectively) under the control of the inducible GAL promoter (see, for example, Knab, et al., Journal of Biological Chemistry 268: 22322–30 (1993); and Knab, et al., Journal of Biological Chemistry 270: 6141–8 (1995)) were used. Additionally, the sensitivity of yeast overexpressing the Topo I-VAC mutant enzyme, containing two amino acid substitutions (htop1-vac and ytop1-vac) that render topoisomerase I insensitive to the action of camptothecin were also examined (see, for example, Knab, et al., Journal of Biological Chemistry 268: 22322–30 (1993); and Knab, et al., Journal of Biological Chemistry 270: 6141–8 (1995)).

[1] = system: yeast lacking Ku70 (encoded by the HDF1 gene); assay: Yeast toxicity in NHEJ-deficient strain lacking Ku70 (hdf1); type: cell-based
Protocol: Yeast toxicity assays were performed essentially as follows: Exponentially growing cultures of the appropriate strains were diluted in synthetic complete media to a concentration of 7.4×10^4 cells/mL, and aliquots (135 μL) were transferred to each well of clear flat-bottomed 96 well plates. Compounds were added in duplicate or triplicate as 15 μL of the appropriate dilution in 5% DMSO. A 15 μL portion of 5% DMSO was added to control wells. Assay plates were incubated at 30° C. for approximately seven generations growth in solvent control wells (as monitored by OD660, typically 21–24 hours), then the OD660 of the cultures was measured in a microplate reader (Bio-Tek). Cell growth (OD660) in treated wells was plotted as a percentage of the growth in at least four averaged solvent control wells for the same strain. Camptothecin sodium salt (camptothecin Na) was the agent used in all yeast assays as standard.
The sensitivity of yeast lacking Ku70 (encoded by the HDF1 gene) to camptothecin Na, compounds Ia and IIa, has now been examined. […] Thus the NHEJ pathway is not important for the repair of lesions induced by these compounds in yeast.

| SMILES | effect of yTOP1 overexpression on toxicity (yeast Topo I) | sensitivity of NHEJ-deficient (hdf1) mutant compared with wild-type [1] |
| --- | --- | --- |
| O=c1c(Cl)c(Cl)cnn1CCCl [compound IIa] | accentuates the toxicity | indistinguishable from that of wild-type |
| O=C(CCl)Nc1ccc(C(=O)N/N=C/c2ccc(Cl)cc2)cc1 [compound Ia] | Little or no accentuation | indistinguishable from that of wild-type |
